Data: patent US9856247B2, “4-methyl-dihydropyrimidines for the treatment and prophylaxis of Hepatitis B virus infection” (Hoffmann-La Roche Inc., priority 2012, dated 2018)
pEC50: −log10 of the molar value. Read-outs that look alike come from different tables or passages of the source.

Experiments:
[1] = test system: HBV DNA; assay: Anti-HBV activity in HepDE19 cells (HBV DNA dot-blot); type: cell-based, Hepatitis B virus (HBV)
Source text: Cells and culture conditions: HepDE19 (Haitao Guo et al, Journal of Virology, 81, November 2007, 12472-12484; Richeng Mao et al, Journal of Virology, 85, January 2011, 1048-1057) cells were derived from HepG2 (ATCC, American Type Culture Collection) cells through transfection with pTet-off plasmid (Clontech) that expresses the Tet-responsive transcriptional activator and pTREHBVDE plasmid in which HBV pgRNA expression is controlled by a CMV early promoter with a tetracycline-responsive element. The transfected cells were selected with G418 (also known as Genticin, purchased from Invitrogen). […] These cells were maintained in Dulbecco's modified Eagle's medium (DMEM)-F12 medium (Invitrogen) supplemented with 10% fetal bovine serum, 100 U/ml penicillin, and 100 μg/ml streptomycin, 0.5 mg/ml of G418 and 1 μg/ml tetracycline.
Anti-HBV activity and cytotoxicity: HepDE19 cells were seeded into 96-well plates (3×10^4 cells/well) with tetracycline-free medium and incubated overnight at 37° C. The test or control compounds were serially half-log diluted with medium and added into the plates (the final concentration of DMSO kept at 0.5% in each well). Five days after compound treatment, cells were washed with PBS and lysed with 50 mM Tris-1 mM EDTA-0.2% CA-630 (pH 8.0) at 37° C. for 20 min. After centrifugation to remove nuclei and other debris, the supernatant was transferred into a new plate and incubated with 2M NaOH/20×SSC (3M NaCl, 0.3M Sodium citrate, pH7.0) at rt for 30 min. Then the samples were transferred to nylon membrane and neutralized with 1M Tris (pH7.4)/2M NaCl. The presence of HBV DNA was detected by dot-blot with DIG-labeled HBV specific DNA probe and quantified by dot density. The compound concentrations that inhibited HBV DNA by 50% (EC50) were determined (See Table 1).

[2] = in vitro; settings: human
Method: The transfected cells were selected with G418 (also known as Genticin, purchased from Invitrogen). […] These cells were maintained in Dulbecco's modified Eagle's medium (DMEM)-F12 medium (Invitrogen) supplemented with 10% fetal bovine serum, 100 U/ml penicillin, and 100 μg/ml streptomycin, 0.5 mg/ml of G418 and 1 μg/ml tetracycline.
To determine if the anti-HBV effect of compound is due to cytotoxicity, HepDE 19 cells (5×10^3 cells/well) were seeded into 96-well plates and compounds were treated as described above. […] Four hours after incubation at 37° C., the absorbance at wavelengths of 450 nm and 630 nm (OD450 and OD630) was recorded by a plate reader.

[3] = Hepatitis B virus, 120 h, HepDE19 cells, five days after compound treatment, concentration that inhibited HBV DNA by 50%, read-out: HepDe19 EC50
[4] = Hepatitis B virus, HepDE19, 120 h, read-out: HepDe19 EC50

In the case of `COC(=O)C1=C(CN2CCOC[C@H]2C(=O)OC)NC(c2nccs2)=NC1(C)c1ccc(F)c(F)c1` (stereo in doubt) [Example 15, 4-[(S)-6-(3,4-Difluoro-phenyl)-5-methoxycarbonyl-6-methyl-2-thiazol-2-yl-3,6-dihydro-pyrimidin-4-ylmethyl]-morpholine-3-carboxylic acid methyl ester], the pEC50 [1, 3] was 6.25 and the CC50 at 5 days [2] was over 100 µM.

For `COC(=O)C1=C(CN2CC(F)(F)C[C@H]2C(=O)OC)NC(c2ccc(F)cn2)=NC1(C)c1ccc(F)cc1` (stereo in doubt) [Example 17, 6-(4,4-Difluoro-2-methoxycarbonyl-pyrrolidin-1-ylmethyl)-4-(4-fluoro-phenyl)-2-(5-fluoro-pyridin-2-yl)-4-methyl-1,4-dihydro-pyrimidine-5-carboxylic acid methyl ester], the pEC50 [1, 3] was 6.23 and the CC50 at 5 days [2] was 90 µM.

For `COC(=O)C1=C(COC(C)(C)C(=O)OC)NC(c2nccs2)=NC1(C)c1ccc(F)cc1` (centres unmarked) [Example 1, 4-(4-Fluoro-phenyl)-6-(1-methoxycarbonyl-1-methyl-ethoxymethyl)-4-methyl-2-thiazol-2-yl-1,4-dihydro-pyrimidine-5-carboxylic acid methyl ester], the pEC50 [1, 3] was 4.58 and the CC50 at 5 days [2] was over 100 µM.

In the case of `COC(=O)C1=C(CN2CCOC[C@H]2C(=O)OC)NC(c2nccs2)=NC1(C)c1ccc(F)cc1` (stereo partly drawn) [Example 5, 4-[6-(4-Fluoro-phenyl)-5-methoxycarbonyl-6-methyl-2-thiazol-2-yl-3,6-dihydro-pyrimidin-4-ylmethyl]-morpholine-(S)-3-carboxylic acid methyl ester], the pEC50 [1, 3] was 6.15 and the CC50 at 5 days [2] was over 100 µM.

For `COC(=O)C1=C(CN2CCOC[C@@H]2C(=O)O)NC(c2ccc(F)cn2)=NC1(C)c1ccc(F)cc1` (stereo partly drawn) [Example 9, 4-[6-(4-Fluoro-phenyl)-2-(5-fluoro-pyridin-2-yl)-5-methoxycarbonyl-6-methyl-3,6-dihydro-pyrimidin-4-ylmethyl]-morpholine-(R)-3-carboxylic acid], the pEC50 [1, 3] was 5.38 and the CC50 at 5 days [2] was over 100 µM.

In the case of `COC(=O)C1=C(CN2CCOC[C@H]2C(=O)O)NC(c2ccc(F)cn2)=NC1(C)c1ccc(F)cc1` (stereo partly drawn) [Example 10, 4-[6-(4-Fluoro-phenyl)-2-(5-fluoro-pyridin-2-yl)-5-methoxycarbonyl-6-methyl-3,6-dihydro-pyrimidin-4-ylmethyl]-morpholine-(S)-3-carboxylic acid], the pEC50 [1, 3] was 5.15 and the CC50 at 5 days [2] was over 100 µM.

For `COC(=O)C1=C(CN2CC(F)(F)C[C@H]2C(=O)O)NC(c2nccs2)=NC1(C)c1ccc(F)cc1` (stereo partly drawn) [Example 11, 6-(2-(S)-Carboxy-4,4-difluoro-pyrrolidin-1-ylmethyl)-4-(4-fluoro-phenyl)-4-methyl-2-thiazol-2-yl-1,4-dihydro-pyrimidine-5-carboxylic acid methyl ester], the pEC50 [1, 4] was 6.34.

Work on `COC(=O)C1=C(CN2CC(F)(F)C[C@@H]2C(=O)O)NC(c2nccs2)=NC1(C)c1ccc(F)cc1` (stereo partly drawn) [Example 12, 6-(2-(R)-Carboxy-4,4-difluoro-pyrrolidin-1-ylmethyl)-4-(4-fluoro-phenyl)-4-methyl-2-thiazol-2-yl-1,4-dihydro-pyrimidine-5-carboxylic acid methyl ester] yielded a pEC50 [1, 4] of 5.18.

Compound `COC(=O)C1=C(CN2CC(F)(F)C[C@H]2C(=O)O)NC(c2nccs2)=N[C@@]1(C)c1ccc(F)cc1` [Example 13, (S)-6-((S)-2-Carboxy-4,4-difluoro-pyrrolidin-1-ylmethyl)-4-(4-fluoro-phenyl)-4-methyl-2-thiazol-2-yl-1,4-dihydro-pyrimidine-5-carboxylic acid methyl ester] has a pEC50 [1, 4] of 6.82.

Work on `COC(=O)C1=C(CN2CC(F)(F)C[C@H]2C(=O)O)NC(c2nccs2)=N[C@@]1(C)c1ccc(F)c(F)c1` [Example 14, (S)-6-((S)-2-Carboxy-4,4-difluoro-pyrrolidin-1-ylmethyl)-4-(3,4-difluoro-phenyl)-4-methyl-2-thiazol-2-yl-1,4-dihydro-pyrimidine-5-carboxylic acid methyl ester] yielded a pEC50 [1, 3] of 6.70 and a CC50 at 5 days [2] of over 100 µM.

For `COC(=O)C1=C(CN2CCOC[C@H]2C(=O)O)NC(c2nccs2)=NC1(C)c1ccc(F)c(F)c1` (some centres unmarked) [Example 16, 4-[6-(3,4-Difluoro-phenyl)-5-methoxycarbonyl-6-methyl-2-thiazol-2-yl-3,6-dihydro-pyrimidin-4-ylmethyl]-morpholine-3-carboxylic acid], the pEC50 [1, 3] was 6.60 and the CC50 at 5 days [2] was over 100 µM.

For `COC(=O)C1=C(CN2CC(F)(F)C[C@H]2C(=O)O)NC(c2ccc(F)cn2)=N[C@@]1(C)c1ccc(F)cc1` [Example 18, (S)-6-((S)-2-Carboxy-4,4-difluoro-pyrrolidin-1-ylmethyl)-4-(4-fluoro-phenyl)-2-(5-fluoro-pyridin-2-yl)-4-methyl-1,4-dihydro-pyrimidine-5-carboxylic acid methyl ester], the pEC50 [1, 3] was 6.24 and the CC50 at 5 days [2] was 25 µM.

With `COC(=O)C1=C(CN2CC(F)(F)C[C@H]2C(=O)O)NC(c2ncc(C)s2)=NC1(C)c1ccc(F)cc1` (stereo partly drawn) [Example 19, 6-((S)-2-Carboxy-4,4-difluoro-pyrrolidin-1-ylmethyl)-4-(4-fluoro-phenyl)-4-methyl-2-(5-methyl-thiazol-2-yl)-1,4-dihydro-pyrimidine-5-carboxylic acid methyl ester] the pEC50 [1, 3] was 4.78 and the CC50 at 5 days [2] was over 100 µM.

With `COC(=O)C1=C(CN2CC(F)(F)C[C@@]2(C)C(=O)O)NC(c2nccs2)=N[C@@]1(C)c1ccc(F)cc1` [Example 20, (S)-6-((S)-2-Carboxy-4,4-difluoro-2-methyl-pyrrolidin-1-ylmethyl)-4-(4-fluoro-phenyl)-4-methyl-2-thiazol-2-yl-1,4-dihydro-pyrimidine-5-carboxylic acid methyl ester] the pEC50 [1, 3] was 5.55 and the CC50 at 5 days [2] was over 100 µM.

Work on `C[C@@]1(c2ccc(F)cc2)N=C(c2nccs2)NC(CN2CC(F)(F)C[C@H]2C(=O)O)=C1C#N` [Example 21, (S)-1-[(S)-5-Cyano-6-(4-fluoro-phenyl)-6-methyl-2-thiazol-2-yl-3,6-dihydro-pyrimidin-4-ylmethyl]-4,4-difluoro-pyrrolidine-2-carboxylic acid] yielded a pEC50 [1, 3] of 4.68 and a CC50 at 5 days [2] of over 100 µM.

`CC1(c2ccc(F)c(F)c2)N=C(c2nccs2)NC(CN2CCOC[C@H]2C(=O)O)=C1C#N` (stereo partly drawn) [Example 22, (S)-4-[5-Cyano-6-(3,4-difluoro-phenyl)-6-methyl-2-thiazol-2-yl-3,6-dihydro-pyrimidin-4-ylmethyl]-morpholine-3-carboxylic acid] showed a pEC50 [1, 3] of 4.69 and a CC50 at 5 days [2] of over 100 µM.

`COC(=O)C1=C(CN2CC(F)(F)C[C@H]2C(=O)O)NC(c2ccc(F)s2)=N[C@@]1(C)c1ccc(F)cc1` [Example 38, (S)-6-((S)-2-carboxy-4,4-difluoro-pyrrolidin-1-ylmethyl)-4-(4-fluoro-phenyl)-2-(5-fluoro-thiophen-2-yl)-4-methyl-1,4-dihydro-pyrimidine-5-carboxylic acid methyl ester] gave a pEC50 [1, 3] of 5.69.

In the case of `COC(=O)C1=C(CN2CC(F)(F)C[C@H]2C(=O)OC)NC(c2nccs2)=N[C@@]1(C)c1ccc(F)cc1` [Example 45, (S)-6-((S)-4,4-difluoro-2-methoxycarbonyl-pyrrolidin-1-ylmethyl)-4-(4-fluoro-phenyl)-4-methyl-2-thiazol-2-yl-1,4-dihydro-pyrimidine-5-carboxylic acid methyl ester], the CC50 at 5 days [2] was at least 100 µM.

In the case of `COC(=O)c1c(C)nc(-c2ncc(F)cc2F)nc1-c1ccc(F)cc1Cl` [XLVI], the pEC50 ([1]; read-out: EC50 value, HBV DNA reduction in HepDE19 cell based assays) was under 4.00.
